For one data set, the system named is TNF-α secretion. Description: Inhibition of TNF-α release by anti-CD3 + PMA stimulated peripheral blood T-cells (ELISA). The class given is cell-based, human. Details: key to TNF-α (pg/ml), 3 Hrs.: .dagger.: undetectable. The procedure:
(§1) Human peripheral blood T-cells were purified from peripheral blood mononuclear cells by rosetting with 2-aminoethylisothiouronium bromide hydrobromide-treated sheep erythrocytes. After hypotonic lysis of sheep erythrocytes, monocytes were depleted by plastic adherence for one hour at 37° C. The peripheral […] T-cells were stimulated with anti-CD3 antibody (OKT3) which was immobilized on the culture wells at 10 μg/ml in PBS plus […] of the phorbol ester, PMA. Culture medium comprised RPMI 1640 medium containing 10% fetal bovine serum, 50 U/ml penicillin, and 50 μg/ml streptomycin. The stimulation was performed in the presence or absence of the inhibitor Compound 1 (200 μM), and TNF-α in the medium was assayed by ELISA.
On the technique in general: ELISA stands for enzyme-linked immunosorbent assay.

The subject of a further data set is CD40L. The experiment in a line: Cell surface CD40L on PMA + ionomycin-stimulated human T-cell clone PL-1 (CD40:Fc staining, FACS). The class given is cell-based. As to the method: (§2) Detection of cell surface TNF-α was performed by staining with an Fc fusion protein consisting of an Fc portion of a human IgG1 molecule (IgGFc) coupled with an extracellular domain of TNF receptor (p80). Detection of cell surface ligands for 41BB and CD40 was performed by staining with analogous Fc fusion proteins consisting of IgGFc and extracellular domains of 41BB and CD40, respectively. […] TNFR:Fc and IL-4R:Fc fusion proteins are described in EP 0 464 533, incorporated herein by reference. The same general procedures used to construct the TNFR:Fc and IL-4R:Fc fusion molecules were utilized in the construction of the 41BB:Fc and CD40:Fc molecules. Fc fusion proteins bound to their respective cell-surface ligands were then detected with a biotinylated anti-human IgG1 followed by streptavidin-phycoerythrin. The intensity of staining was measured by a FACS (fluorescence activated cell sorting) scan flow cytometer.

Another data set has as its system IL-4. Description: Cell surface IL-4 on PMA + ionomycin-stimulated human T-cell clone PL-1 (IL-4R:Fc staining, negative control). The conditions noted are these: + Compound 1 (10 without). The class given is cell-based. The procedure: as §2
The subject of data set [1] is serum TNF-α. Description: In vivo inhibition of TACE: LPS-induced serum TNF levels, 250 μg compound s.c. On the set-up: species or system Balb/c mice. The conditions noted are these: 2 hours; for serum TNF-α, mean optical density (OD) in the ELISA: 250 μg s.c. in saline/DMSO with 450 μg LPS i.v., three mice, LPS + Saline + DMSO 0.268 ± 0.040, background OD 0.162±0.003; for effect on serum TNF-α levels in LPS-stimulated mice: 250 μg s.c., 450 μg LPS i.v. As to the method: Female Balb/c mice (18-20 g) were injected i.v. with 450 μg of LPS. Simultaneously, the mice were injected subcutaneously with 250 μg of Compound A or Compound 1 in 0.25 ml of saline containing 0.02% DMSO. Control mice received LPS intravenously and saline/DMSO subcutaneously. Two hours following the LPS injection, serum was obtained from three mice in each treatment group. TNF-α levels were determined by ELISA. The results are expressed as the mean optical density (OD) obtained in the ELISA from each treatment group, and are shown in Table V. The background OD of the control sample was 0.162±0.003.

For the next data set, the target named is purified TACE (Homo sapiens, UniProt P78536). Description: Serum stability in normal mouse serum, read out as inhibitory efficacy against purified TACE. The conditions noted are these: 50 μM in normal mouse serum, 37° C., after 40 minutes. Format: in vitro ADME. As to the method: Each of Compound 1 and Compound A was diluted to 50 μM in normal mouse serum and incubated at 37° C. At various times, aliquots were withdrawn, diluted 100-fold into ice-cold PBS, and tested for inhibitory, efficacy against purified TACE.

Another data set has as its system IFN-γ secretion. Description: IFN-γ production by anti-CD3 + PMA stimulated peripheral blood T-cells. The class given is cell-based, human. As to the method: [The source words this procedure for another target and reports this target under the same test.] as §1
The subject of data set [2] is serum TNF-α. Description: In vivo inhibition of TACE: LPS-induced serum TNF levels, 500 μg compound s.c. On the set-up: species or system Balb/c mice. The conditions noted are these: for Serum TNF-α level: 500 μg s.c. with 400 μg LPS i.v., serum 2 hours after LPS, pooled from two mice, Saline/DMSO control 157. As to the method: Female Balb/c mice (18-20 g) were injected i.v. with 400 μg of LPS. Simultaneously, the mice were injected subcutaneously with 500 μg of Compound A or Compound 1 in 0.5 ml of saline containing 0.02% DMSO. Control mice received LPS intravenously and saline/DMSO subcutaneously. Two hours following the LPS injection, serum was obtained and pooled from two mice in each treatment group.
In a similar manner to the procedure described above, mice were injected i.v. with 400 μg LPS. Simultaneously, the mice were injected subcutaneously with 500 μg Compound 1 in 0.5 ml saline containing 0.02% DMSO. Two hours later, serum was obtained and pooled. TNF-α levels were determined by ELISA.

For the next data set, the system named is 41BBL. The experiment in a line: Cell surface 41BBL on PMA + ionomycin-stimulated human T-cell clone PL-1 (41BB:Fc staining, FACS). Format: cell-based. As to the method: as §2
The next data set relates to TNF-β secretion. The experiment in a line: TNF-β production by anti-CD3 + PMA stimulated peripheral blood T-cells. Format: cell-based, human. Details: key to TNF-β (pg/ml), 3 Hrs.: .dagger.: undetectable. As to the method: [The source words this procedure for another target and reports this target under the same test.] as §1
The test system of another data set is cell surface TNF-α. The experiment in a line: Cell surface TNF-α on PMA + ionomycin-stimulated human T-cell clone PL-1 (TNFR:Fc staining, FACS). The class given is cell-based. As to the method:
as §2

Setting [3] is: with Compound 1 200 μM, 24 Hrs.
Where [4] appears, read: with Compound 1 200 μM, 48 Hrs.

Each structure is given as a SMILES string.

Sequence of purified TACE (P78536 215-824): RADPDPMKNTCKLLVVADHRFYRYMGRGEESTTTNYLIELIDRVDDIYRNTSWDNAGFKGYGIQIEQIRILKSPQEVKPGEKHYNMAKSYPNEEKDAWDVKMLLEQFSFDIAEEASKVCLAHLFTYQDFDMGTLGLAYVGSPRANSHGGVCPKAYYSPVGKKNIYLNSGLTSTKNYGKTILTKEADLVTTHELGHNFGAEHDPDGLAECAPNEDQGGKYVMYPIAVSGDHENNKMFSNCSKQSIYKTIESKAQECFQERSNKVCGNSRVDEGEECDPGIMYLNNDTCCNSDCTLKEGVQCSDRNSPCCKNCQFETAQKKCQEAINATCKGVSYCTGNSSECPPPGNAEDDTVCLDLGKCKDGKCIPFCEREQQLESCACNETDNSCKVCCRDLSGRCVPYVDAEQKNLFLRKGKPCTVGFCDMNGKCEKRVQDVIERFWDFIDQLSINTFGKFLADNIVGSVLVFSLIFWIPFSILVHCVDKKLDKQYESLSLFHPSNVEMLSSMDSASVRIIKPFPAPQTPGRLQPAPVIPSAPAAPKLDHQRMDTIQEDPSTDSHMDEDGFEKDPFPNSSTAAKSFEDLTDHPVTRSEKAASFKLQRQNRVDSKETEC

Take `CC(C)CC(CC(=O)NO)C(=O)N[C@@H](Cc1ccc2ccccc2c1)C(=O)N[C@@H](C)C(=O)NCCN` (stereo partly drawn) [Compound 1, N-{D,L-2-(hydroxyaminocarbonyl)methyl-4-methylpentanoyl}-L-3-(2'-naphthyl) alanyl-L-alanine, 2-aminoethyl amide]: the “inhibition of TNF-α release” value in the data set with TNF-α secretion (200 μM, 48 hours) was 63%. In addition, in the data set with TNF-α secretion (200 μM, after 3 hours, 100 pg/ml without compound), the “TNF-α in the medium” value is “no detectable”. Further, the “TNF-α (pg/ml), 3 Hrs.” value in the data set with TNF-α secretion (with Compound 1 200 μM, medium of stimulated peripheral blood T cells, 3 Hrs.) is given as “.dagger”. Also, in the data set with TNF-α secretion (with Compound 1 200 μM, medium of stimulated peripheral blood T cells, 24 Hrs.), the “TNF-α (pg/ml), 24 Hrs.” value is 100 pg/mL. Moreover, the “TNF-α (pg/ml), 48 Hrs.” value in the data set with TNF-α secretion (with Compound 1 200 μM, medium of stimulated peripheral blood T cells, 48 Hrs.) was 300 pg/mL. Moreover, the “cell surface CD40L (MFI)” value in the data set with CD40L (4h after stimulation, + Compound 1 (107 without)) is listed as 107 MFI, arbitrary units; in the data set with CD40L (18h after stimulation, + Compound 1 (19 without)) it was 46 MFI, arbitrary units. In addition, the “enhancement of CD40:Fc binding” value with CD40L (18 hours of stimulation) is on record as “approximately 2 fold”. Moreover, in the data set on CD40L (four hours of stimulation), the “increase on CD40:Fc binding” value is “no increase”. Besides, the “cell surface IL-4 (MFI)” value was 10 MFI, arbitrary units in the data set with IL-4 (4h after stimulation) and 10 MFI, arbitrary units in the data set on IL-4 (18h after stimulation). Also, the “serum TNF-α, mean optical density (OD) in the ELISA” value in the data set on serum TNF-α [1] stood at 0.147 ± 0.004 OD. In the data set with serum TNF-α [1], the “effect on serum TNF-α levels in LPS-stimulated mice” value is reported as “complete inhibition”. The “decrease in inhibitory effect against purified TACE, as loss in concentration of the compound” value on purified TACE is “no decrease”. The “inhibitory effect on the release of interferon-γ” value in the data set on IFN-γ secretion (200 μM, 24 and 48 hours) is “no inhibitory effect”. In the data set with IFN-γ secretion (with Compound 1 200 μM, 3 Hrs.), the “IFN-γ (ELISA OD), 3 Hrs.” value is 0.2 ELISA OD. Also, in the data set with IFN-γ secretion (setting [3]), the “IFN-γ (ELISA OD), 24 Hrs.” value stood at 0.9 ELISA OD. In the data set on IFN-γ secretion (setting [4]), the “IFN-γ (ELISA OD), 48 Hrs.” value was 1.08 ELISA OD. In addition, in the data set with serum TNF-α [2], the “Serum TNF-α level” value was “undetectable”. Further, the “reduction of serum TNF-α levels in a murine model of LPS-induced sepsis syndrome” value with serum TNF-α [2] (25 mg/kg, from Tables III and IV) was “at least 80%”. In addition, the “LPS-induced serum TNF level” value stood at 301 pg/mL in the data set with serum TNF-α [2] (Experiment No. 1, 500 μg s.c., 400 μg LPS i.v., 2 hours, LPS only 1696, LPS + Saline 1268); 269 pg/mL in the data set with serum TNF-α [2] (Experiment No. 2, 500 μg s.c., 400 μg LPS i.v., 2 hours, LPS only 2527, LPS + Saline 1768); 281 pg/mL in the data set on serum TNF-α [2] (Experiment No. 3, 500 μg s.c., 400 μg LPS i.v., 2 hours, LPS only 1833, LPS + Saline 1732). Besides, the “reduction of serum TNF-α levels as compared to LPS only” value in the data set on serum TNF-α [2] (experiment 1, 500 μg s.c.) was 82%; in the data set with serum TNF-α [2] (experiment 2, 500 μg s.c.) it was 89%; in the data set with serum TNF-α [2] (experiment 3, 500 μg s.c.), 85%. Besides, the “reduction of serum TNF-α levels as compared to LPS+saline” value came to 76% in the data set with serum TNF-α [2] (experiment 1, 500 μg s.c.); 85% with serum TNF-α [2] (experiment 2, 500 μg s.c.); 84% in the data set on serum TNF-α [2] (experiment 3, 500 μg s.c.). Also, the “overall reduction of serum TNF-α levels as compared to LPS only” value with serum TNF-α [2] (experiments 1-3, 500 μg s.c.) is 85.4±2.98%. Moreover, the “cell surface 41BBL (MFI)” value in the data set with 41BBL (4h after stimulation, + Compound 1 (428 without)) is listed as 344 MFI, arbitrary units; with 41BBL (18h after stimulation, + Compound 1 (5 without)) it was 9 MFI, arbitrary units. Besides, the “enhancement of 41BB:Fc binding” value in the data set with 41BBL (18 hours of stimulation) was “approximately 2 fold”. The “increase on 41BB:Fc binding” value with 41BBL (four hours of stimulation) was “no increase”. The “inhibitory effect on the release of TNF-β” value in the data set on TNF-β secretion (200 μM, 24 and 48 hours) was “no inhibitory effect”. In addition, in the data set with TNF-β secretion (with Compound 1 200 μM, 3 Hrs.), the “TNF-β (pg/ml), 3 Hrs.” value was “.dagger”. Also, the “TNF-β (pg/ml), 24 Hrs.” value in the data set on TNF-β secretion (setting [3]) turned out to be 160 pg/mL. Besides, the “TNF-β (pg/ml), 48 Hrs.” value in the data set on TNF-β secretion (setting [4]) came out at 1050 pg/mL. In addition, the “cell surface TNF-α (MFI)” value in the data set on cell surface TNF-α (4h after stimulation, + Compound 1 (83 without)) is 3040 MFI, arbitrary units; in the data set with cell surface TNF-α (18h after stimulation, + Compound 1 (7 without)), 616 MFI, arbitrary units. Besides, the “increase in TNFR:Fc binding” value in the data set on cell surface TNF-α (18 hours of stimulation, presence vs absence of Compound 1) is reported as 100 fold.
In the case of `CC(C)CC(CC(=O)NO)C(=O)N[C@@H](Cc1ccc2ccccc2c1)C(=O)N[C@@H](C)C(N)=O` (stereo partly drawn) [Compound A, N-{D,L-2-(hydroxyaminocarbonyl)methyl-4-methylpentanoyl}L-3-(2'naphthyl)-a lanyl-L-alanine amide, reference compound], in the data set with serum TNF-α [1], the “serum TNF-α, mean optical density (OD) in the ELISA” value amounted to 0.299 ± 0.023 OD and the “effect on serum TNF-α levels in LPS-stimulated mice” value is recorded as “no effect”. In addition, the “decrease in inhibitory effect against purified TACE, as loss in concentration of the compound” value at purified TACE is listed as 3-4 fold. Also, in the data set with serum TNF-α [2], the “Serum TNF-α level” value was determined as 65 pg/mL. In addition, the “reduction of serum TNF-α levels as compared to the saline/DMSO control” value in the data set on serum TNF-α [2] (500 μg s.c., 400 μg LPS i.v., 2 hours) is “approximately 60%”.

Values taken from patent publication US5629285A, “Inhibitors of TNF-α secretion” (Immunex Corporation, priority 1996, dated 1997).
